Test results published in patent US9840465B2 (priority 2013, dated 2017).
Where a name gives a salt, the structure may show the parent alone. Read-outs that look alike come from different tables or passages of the source.

What was measured:
[1] = test system: A2/Taiwan/1/64 (H2N2), M2 WT; test: microbe, parasite or virus in culture; assay type: cell-based; settings: read-out: EC50 A2/Taiwan/1/64 (H2N2)
[2] = test system: A/Victoria/3/75 (H3N2), M2 WT; test: microbe, parasite or virus in culture; assay type: cell-based; settings: read-out: EC50 A/Victoria/3/75 (H3N2)

Molecule `CCCCCCC1(N)C2CC3CC(C2)CC1C3` (stereo not drawn) (as salt: fumarate) [Compound 101, 2-n-hexyl-tricyclo[3.3.1.1^3,7]decan-2-amine] has a melting point of 225 °C.

With `CCC1CCC2(N1)C1CC3CC(C1)CC2C3` (stereo not drawn) (as salt: fumarate) [Compound 347, 5-ethylspiro[pyrrolidine-2,2′-tricyclo[3.3.1.1^3,7]decane]] the melting point was 191 to 193 °C (dec.).

Work on `NC12CC3CC(CC(C3)C1)C2` [Amantadine (1), Amantadine, reference compound] yielded an EC50 ([1]; Influenza A virus, H2N2, MDCK) of 340 nM and an EC50 ([2]; Influenza A virus, H3N2, MDCK) of 2800 nM.

In the case of `CCCC1(N)C2CC3CC(C2)CC1C3` (stereo not drawn) [Compound 7], the EC50 ([1]; Influenza A virus, H2N2, MDCK) is reported as < 240 nM and the EC50 ([2]; Influenza A virus, H3N2, MDCK) is reported as 23000 nM.

`CCCCC1(N)C2CC3CC(C2)CC1C3` (stereo not drawn) [Compound 17, (1r,3r,5r,7r)-2-butyladamantan-2-amine] gave an EC50 [1] of 1500 nM and an EC50 [2] of 4000 nM.

`CC(C)CC1(N)C2CC3CC(C2)CC1C3` (stereo not drawn) [Compound 18, (1r,3r,5r,7r)-2-isobutyladamantan-2-amine] showed an EC50 [1] of 400 nM and an EC50 [2] of 13000 nM.

For `NC1(c2ccccc2)C2CC3CC(C2)CC1C3` (stereo not drawn) [Compound 19, (1r,3r,5r,7r)-2-phenyladamantan-2-amine], the EC50 [1] was 200 nM and the EC50 [2] was 8000 nM.

For `NC1(Cc2ccccc2)C2CC3CC(C2)CC1C3` (stereo not drawn) [Compound 20, (1r,3r,5r,7r)-2-benzyladamantan-2-amine], the EC50 [1] was 200 nM and the EC50 [2] was 18000 nM.

In the case of `CCCCCCC1(N)C2CC3CC(C2)CC1C3` (stereo not drawn) [Compound 101, 2-n-hexyl-tricyclo[3.3.1.1^3,7]decan-2-amine], the EC50 ([1]; Influenza A virus, H2N2, MDCK) is reported as 1500 nM, the EC50 ([2]; Influenza A virus, H3N2, MDCK) is reported as 1100 nM and the “microscopic evidence of cytotoxicity to MDCK cells” value (MDCK cells) is reported as “No microscopic evidence of cytotoxicity”.

`CC(C)(N)C12CC3CC(CC(C3)C1)C2` [Compound 259, 2-(adamantan-1-yl)propan-2-amine] gave an EC50 ([1]; Influenza A virus, H2N2, MDCK) of 1100 nM and an EC50 ([2]; Influenza A virus, H3N2, MDCK) of 3400 nM.

For `CC(N)C12CC3CC(CC(C3)C1)C2` (stereo not drawn) [Rimantadine (2), Rimantadine, reference compound], the EC50 ([1]; Influenza A virus, H2N2, MDCK) was 1600 nM and the EC50 ([2]; Influenza A virus, H3N2, MDCK) was 530 nM.
